Counter-ions that a name gives are not always drawn.
Tests used:
[1] = system: tracheal smooth muscle (TSM) segments; assay: Relaxation dose-response to isoproterenol in TSM segments half-maximally contracted with ACh; assay type: cell-based, rabbit
Procedure: Rabbits were anesthetized with xylazine (10 mg/kg) and ketarnine (50 mg/kg) and were subsequently sacrificed using an overdose of pentobarbital (130 mg/kg). The tracheae of the rabbits were removed via open thoracotomy, the tracheae were cleared of loose connective tissue and were divided into eight ring segments of 6-8 mm length. Each segment referred to herein as a tracheal smooth muscle (TSM) segment was incubated for 24 hours at room temperature in either of the following: 1) human serum containing immunoglobulin (Ig) E at greater than 1000 IU/ml which was obtained from allergic patients having moderate to severe asthma and a 4-5/6+radioallergosorbent test (RAST) positive (having a specific IgE concentration of more than 17.5 Phadebas RAST units (PRU)/ml) to Dermatophagoides pteronyssimus, Dermatophagoides farinae and ragweed, and a positive skin test to these antigens; or 2) human serum obtained from non-atopic, non-asthmatic individuals having normal serum IgE levels (i.e., <70 IU/ml) and negative skin test reactivity to Dermatophagoides pteronyssimus, Dermatophagoides farinae and ragweed (Hakonarson et al. 1995, Am. J. Physiol. (Lung Cell Mol. Physiol.) 269:L645-L652).
In parallel experiments, TSM segments were incubated in either control serum or in atopic asthmatic serum that was: a) depleted of its immunoglobulin complexes by pretreatment with sepharose Staphylococcus protein A as described (Kessler, 1975, J. Immunol. 1 15:161.7-1624); b) co-incubated with an anti-CD23 (40 μg/ml) monoclonal blocking antibody; or c) with an anti-CD 16 (2 μg/ml) monoclonal blocking antibody. The TSM segments were treated with their respective anti-CD23 or anti-CD16 antibodies in Dulbecco's modified Eagle's medium for 1 hour prior to exposure to the atopic asthmatic serum.
In extended experiments, paired TSM segments were incubated for 24 hours in Dulbecco's modified Eagle's medium, as previously described (Hakonarson et al., 1996, J. Clin. Invest. 97:2593-2600), containing either: a) human IgE (final bath concentration (FBC): 15 μg/ml); or b) human IgE-goat-anti-human IgE immune complexes (FBC: 15:5 μg/ml of IgE/anti-IgE in the final organ bath mixture). Tissues incubated in medium alone served as controls. The concentrations of immune complexes used for the TSM incubations were based on the results obtained in pilot studies which were designed to determine the concentration and ratio of immune complexes that induced the greatest acute contractile effect in isolated sensitized TSM segments. The serum was aerated with a continuous supplemental O2 mixture (95% O2/5% CO2) during the incubation phase.
Following incubation of the tissue preparations obtained as described herein, each rabbit airway segment was suspended longitudinally between stainless steel triangular supports in siliconized Harvard 20 ml organ baths. […] Care was taken to place the membranous portion of the trachea between the supports in order to maximize the recorded tension generated by the contracting trachealis muscle. The tissues were bathed in modified Krebs-Ringer solution containing 125 mM NaCl, 14 mM NaHCO3, 4 mM KCl, 2.25 mM CaCl2.H2O, 1.46 MgSO4.H2O, 1.2 mM NaH2PO4.H2O and 11 mM glucose. The baths were aerated with 5% CO2 in oxygen, a pH of 7.35-7.40 was maintained, and the organ bath temperature was held at 37° C. Passive resting tension of each TSM segment was set at 2.0 g after each tissue had been passively stretched to a tension of 8 g in order to optimize the resting length of each segment as described (Tanaka et al., 1990, J. Clin. Invest. 85:345-350). The tissues were allowed to equilibrate in the organ baths for 45 minutes, at which time each tissue was primed with a 1 minute exposure to 10−4 M acetylcholine (ACh). […]

[2] = system: tracheal smooth muscle (TSM) segments; assay: Cholinergic contractility of isolated TSM segments to cumulative ACh (organ bath, isometric tension); assay type: cell-based, rabbit
Procedure: Rabbits were anesthetized with xylazine (10 mg/kg) and ketarnine (50 mg/kg) and were subsequently sacrificed using an overdose of pentobarbital (130 mg/kg). The tracheae of the rabbits were removed via open thoracotomy, the tracheae were cleared of loose connective tissue and were divided into eight ring segments of 6-8 mm length. […]
Following incubation of the tissue preparations obtained as described herein, each rabbit airway segment was suspended longitudinally between stainless steel triangular supports in siliconized Harvard 20 ml organ baths. […] Care was taken to place the membranous portion of the trachea between the supports in order to maximize the recorded tension generated by the contracting trachealis muscle. […]

[3] = TSM incubated with control serum

Compound | Rmax (% maximal relaxation) for isoproterenol ([1]; IgE immune complex-treated TSM (15:5 μg/ml, 24 h)) [%] | Rmax (% maximal relaxation) for isoproterenol ([1]; atopic asthmatic serum-sensitized TSM) [%] | Rmax (% maximal relaxation) for isoproterenol ([1]; control TSM, vehicle alone 24 h) [%] | Rmax (% maximal relaxation) for isoproterenol ([1]; control serum-treated TSM) [%] | Effect on relaxation responsiveness to isoproterenol [1, 3] | Effect on the attenuated isoproterenol-induced relaxation responses ([1]; atopic asthmatic serum-sensitized TSM, tissue pretreated with antibody (anti-CD23 40 μg/ml, anti-CD16 2 μg/ml) or serum depleted with SpA) | Effect on contractility of the tissue to ACh [2, 3] | Effect on the induced augmented constrictor responses to ACh ([2]; atopic asthmatic serum-sensitized TSM, tissue pretreated with antibody (anti-CD23 40 μg/ml, anti-CD16 2 μg/ml) or serum pre-treated with SpA)
CC(C)NCC(O)c1ccc(O)c(O)c1 (centres unmarked) [isoproterenol, isoproterenol hydrochloride] | 36.8±10.4 | 26.0±5.1 | 67.8±6.0 | 47.0±4.7 |  |  |  | 
SpA: Sepharose Staphylococcus protein A used to deplete the sensitizing serum of its immune complexes |  |  |  |  | neither anti-CD23 MAb nor pretreatment of the control serum with SpA affected | ablated | neither anti-CD23 MAb nor pretreatment of the control serum with SpA affected | largely prevented

— US6630140B1, “Compositions and methods for treatment of asthma” (The Children's Hospital of Philadelphia, priority 1998, dated 2003)
